The test system of this assay is XBP1s-luc 293 LUC. The assay can be described thus: cellular PD assay, XBP1s-LUC reporter (Example 903). The format is cell-based. Conditions: read-out: XBP1s-luc 293 LUC (IC50). The method, then:
Inhibition of IRE1α RNase activity was determined in an enzyme assay that measured cleavage of the XBP1 stem loop by autophosphorylated IRE1α. This assay format was chosen to ensure that inhibitors of either the IRE1α kinase or the RNase domains would be identified. Binding to the ATP pocket and inhibition of IRE1α kinase activity are not necessarily required to inhibit the RNase activity. Compounds were also profiled in cellular assays by direct measurement of XBP s (B-DNA assay) or by quantification of the luciferase signal in HT1080 XBP1-Luc, which carries a luciferase fusion that is only in frame and expressed from the spliced XBP1 transcript.
Biological activity of Formula I or I′ compounds was measured by an IRE1 biochemical binding assay (Example 901), a biochemical RNase assay (Example 902), a cellular PD assay, XBP1s-LUC reporter (Example 903), and an IRE1α-based inhibition of multiple myeloma (MM) cell proliferation assay.
All of the exemplary Formula I or I′ compounds in Tables 1 and 2 were made and characterized by LCMS [M+H]^+ (liquid chromatography mass spectroscopy) with detection of parent ion. All of the exemplary Formula I compounds in Tables 1 and 2 were prepared according to the procedures of the Schemes, General Procedures, and Examples. All of the exemplary Formula I or I′ compounds in Tables 1 and 2 were tested for binding to IRE1 (inositol requiring enzyme 1 alpha) and biological activity according to the assays and protocols of Example 901-903. Exemplary Formula I or I′ compounds in Tables 1 and 2 have the following structures, corresponding IUPAC names (ChemBioDraw, Version 12.0.2, CambridgeSoft Corp., Cambridge Mass.), and biological activity. Where more than one name is associated with a Formula I or I′ compound or intermediate in Tables 1 and 2 and the Experimental Procedures, the chemical structure shall define the compound. Assignment of configuration at chiral centers in separated stereoisomers may be tentative, and depicted in Tables 1 and 2 structures for illustrative purposes, before stereochemistry is definitively established, such as from x-ray crystallographic data. In some cases, stereoisomers are separated and tested for biological activity before the stereochemistry of the separated stereoisomers is determined; and stereochemistry in some instances was inferred based on structure-activity relationship (SAR) knowledge from previous compounds. In some cases, the compounds are tested as racemic or diastereomeric mixtures. Where more than one potency value is entered on a row, separated stereoisomers represented by the structure and name on that row were tested. Exemplary compounds of Formula I or I′ in Table 3 can be prepared using methods known in the art or according to procedures similar to those described in the Schemes, General Procedures, and Examples 101-500. Biological activities of compounds in Table 3 can be tested in biological assays, for example, those in Examples 901, 902 and 903 described herein.

Each structure is given as a SMILES string. Structures can show the parent of a compound that is named as a salt. Where two headings read alike, the source gives them in different places.

As for `Cc1ccc2c(NC(=O)C(C)C)cccc2c1Oc1ncccc1-c1ccnc(N[C@H]2CCCNC2)n1` [Example 263, (S)—N-(6-Methyl-5-((3-(2-(piperidin-3-ylamino)pyrimidin-4-yl)pyridin-2-yl)oxy)naphthalen-1-yl)isobutyramide hydrochloride], the IC50 – broadly, the point on the concentration scale where inhibition reaches its midpoint – (Table 1) is 362 nM. Still for that read-out and setting: the figure for `Cc1ccc2c(N3CC[C@@H](CF)C3=O)cccc2c1Oc1ncccc1-c1ccnc(N[C@H]2CCCNC2)n1` [Example 315, (R)-3-(Fluoromethyl)-1-(6-methyl-5-((3-(2-(((S)-piperidin-3-yl)amino)pyrimidin-4-yl)pyridin-2-yl)oxy)naphthalen-1-yl)pyrrolidin-2-one] is 471 nM. Consider `Cc1ccc2c(NS(=O)(=O)N(C)CCC(F)(F)F)c(F)ccc2c1Oc1ncccc1-c1ccnc(N[C@H]2CCCNC2)n1` [Example 441, 4-[2-[[6-Fluoro-2-methyl-5-[[methyl(3,3,3-trifluoropropyl)sulfamoyl]amino]-1-naphthyl]oxy]-3-pyridyl]-2-[[(3S)-3-piperidyl]amino]pyrimidine hydrochloride], for which the IC50 (Table 2) is 48 nM.

Take `Cc1ccc2c(NS(=O)(=O)[C@@H](C)c3ccccc3)cccc2c1Oc1ncccc1-c1ccnc(N[C@H]2CCCNC2)n1` (single isomer, unassigned) [Example 214]: under “Table 1”, the IC50 was 76 nM. For the compound `Cc1ccc2c(NS(=O)(=O)Cc3ccccc3Cl)cccc2c1Oc1ncccc1-c1ccnc(N[C@H]2CCCNC2)n1` [Example 135, (S)-1-(2-Chlorophenyl)-N-(6-methyl-5-((3-(2-(piperidin-3-ylamino)pyrimidin-4-yl)pyridin-2-yl)oxy)naphthalen-1-yl)methanesulfonamide], the IC50 (Table 1) worked out at 10 nM. Still for that read-out and setting: the same measure for `Cc1ccc2c(NCc3ccn(C)n3)cccc2c1Oc1ncccc1-c1ccnc(N[C@@H]2CNC[C@H](C)C2)n1` [Example 330, 4-(2-((2-Methyl-5-(((1-methyl-1H-pyrazol-3-yl)methyl)amino)naphthalen-1-yl)oxy)pyridin-3-yl)-N-((3S,5R)-5-methylpiperidin-3-yl)pyrimidin-2-amine]: 197 nM.

Turning to `COCCCS(=O)(=O)Nc1c(F)ccc2c(Oc3ncccc3-c3ccnc(N[C@H]4CCCNC4)n3)c(C)ccc12` [Example 450, (S)—N-(2-Fluoro-6-methyl-5-((3-(2-(piperidin-3-ylamino)pyrimidin-4-yl)pyridin-2-yl)oxy)naphthalen-1-yl)-3-methoxypropane-1-sulfonamide hydrochloride], the IC50 (Table 2) was determined as 104 nM.

`CCCN(C)S(=O)(=O)Nc1c(F)ccc2c(Oc3ncccc3-c3ccnc(N[C@H]4CCCNC4)n3)c(C)ccc12` [Example 420, 4-[2-[[6-Fluoro-2-methyl-5-[[methyl(propyl)sulfamoyl]amino]-1-naphthyl]oxy]-3-pyridyl]-2-[[(3S)-3-piperidyl]amino]pyrimidine hydrochloride]: under “Table 2”, the IC50 was determined as 41 nM. In the case of `Cc1ccc2c(NS(=O)(=O)CC3CCCC3)cccc2c1Oc1ncccc1-c1ccnc(N[C@H]2CCCNC2)n1` [Example 128, (S)-1-Cyclopentyl-N-(6-methyl-5-((3-(2-(piperidin-3-ylamino)pyrimidin-4-yl)pyridin-2-yl)oxy)naphthalen-1-yl)methanesulfonamide], the IC50 (Table 1) was 317 nM. Take `Cc1ccc2c(NC(=O)C3(C)CC3)c(F)ccc2c1Oc1ncccc1-c1ccnc(N[C@H]2CCCNC2)n1` [Example 365, (S)—N-(2-Fluoro-6-methyl-5-((3-(2-(piperidin-3-ylamino)pyrimidin-4-yl)pyridin-2-yl)oxy)naphthalen-1-yl)-1-methylcyclopropanecarboxamide]: where the note is “Table 1”, the IC50 turned out to be 438 nM. On the same count and under the same terms, the figure for `CC[C@H](O)CNc1cccc2c(Oc3ncccc3-c3ccnc(N[C@H]4CCCNC4)n3)c(C)ccc12` [Example 313, (S)-1-((6-Methyl-5-((3-(2-((S)-piperidin-3-ylamino)pyrimidin-4-yl)pyridin-2-yl)oxy)naphthalen-1-yl)amino)butan-2-ol] is 148 nM. As to `Cc1ccc2c(NS(=O)(=O)C[C@H]3CCCO3)c(F)ccc2c1Oc1ncccc1-c1ccnc(N[C@H]2CCCNC2)n1` (single isomer, unassigned) [Example 417, hydrochloride], the IC50 (Table 2) turned out to be 74 nM. Regarding `Cc1ccc2c(N3CCCCCC3=O)cccc2c1Oc1ncccc1-c1ccnc(N[C@H]2CCCNC2)n1` [Example 249, (S)-1-(6-Methyl-5-((3-(2-(piperidin-3-ylamino)pyrimidin-4-yl)pyridin-2-yl)oxy)naphthalen-1-yl)azepan-2-one], under “Table 1”, the IC50 was determined as 309 nM. Same read-out and setting: the figure for `Cc1ccc2c(NS(=O)(=O)Cc3ccc(F)cc3F)c(F)ccc2c1Oc1ncccc1-c1ccnc(N[C@H]2CCCNC2)n1` [Example 186, (S)-1-(2,4-Difluorophenyl)-N-(2-fluoro-6-methyl-5-((3-(2-(piperidin-3-ylamino)pyrimidin-4-yl)pyridin-2-yl)oxy)naphthalen-1-yl)methanesulfonamide] is 4.89 nM. As for `Cc1ccc2c(NS(=O)(=O)c3ccc4c(c3)OCO4)c(F)ccc2c1Oc1ncccc1-c1ccnc(N[C@H]2CCCNC2)n1` [Example 403, N-[2-Fluoro-6-methyl-5-[[3-[2-[[(3S)-3-piperidyl]amino]pyrimidin-4-yl]-2-pyridyl]oxy]-1-naphthyl]-1,3-benzodioxole-5-sulfonamide], the IC50 (Table 2) worked out at 44 nM. As to `Cc1ccc2c(NS(=O)(=O)Cc3ccccc3)cccc2c1Oc1ncccc1-c1ccnc(NC2CNCCC2F)n1` (stereo not drawn) [Example 162, N-(5-((3-(2-((4-Fluoropiperidin-3-yl)amino)pyrimidin-4-yl)pyridin-2-yl)oxy)-6-methylnaphthalen-1-yl)-1-phenylmethanesulfonamide], the IC50 (Table 1) stood at 67 nM. Still for that read-out and setting: the figure for `Cc1ccc2c(Nc3nn(C)cc3F)cccc2c1Oc1ncccc1-c1ccnc(N[C@H]2CCCNC2)n1` [Example 360, (S)-4-(2-((5-((4-Fluoro-1-methyl-1H-pyrazol-3-yl)amino)-2-methylnaphthalen-1-yl)oxy)pyridin-3-yl)-N-(piperidin-3-yl)pyrimidin-2-amine] is 455 nM. For the compound `Cc1ccc2c(NS(=O)(=O)CC(C)C(F)(F)F)c(F)ccc2c1Oc1ncccc1-c1ccnc(N[C@H]2CCCNC2)n1` (single isomer, unassigned) [Example 455, hydrochloride], the half-maximal inhibitory concentration (IC50) (Table 2, hydrochloride) turned out to be 18 nM. In the case of `CCC(C)CS(=O)(=O)Nc1c(F)ccc2c(Oc3ncccc3-c3ccnc(N[C@H]4CCCNC4)n3)c(C)ccc12` (mixture of isomers) [Example 409, N-(2-Fluoro-6-methyl-5-((3-(2-(((S)-piperidin-3-yl)amino)pyrimidin-4-yl)pyridin-2-yl)oxy)naphthalen-1-yl)-2-methylbutane-1-sulfonamide], the IC50 (Table 2) amounted to 25 nM. For `Cc1ccc2c(NC(=O)CC(C)(C)C)c(F)ccc2c1Oc1ncccc1-c1ccnc(N[C@@H]2CNC[C@@H](F)C2)n1` (single isomer, unassigned) [Example 322], the IC50 (Table 1) turned out to be 40.7 nM. `Cc1ccc2c(NS(=O)(=O)C[C@H]3CCC3(F)F)c(F)ccc2c1Oc1ncccc1-c1ccnc(N[C@H]2CCCNC2)n1` (single isomer, unassigned) [Example 471, hydrochloride]: where the note is “Table 2”, the IC50 came to 17 nM. As to `CCCS(=O)(=O)Nc1c(F)ccc2c(Oc3ncccc3-c3ccnc(N[C@H]4CCCNC4)n3)c(C)ccc12` [Example 221, (S)—N-(2-Fluoro-6-methyl-5-((3-(2-(piperidin-3-ylamino)pyrimidin-4-yl)pyridin-2-yl)oxy)naphthalen-1-yl)propane-1-sulfonamide], the IC50 (Table 1) turned out to be 37 nM. With `Cc1ccc2c(NS(=O)(=O)C[C@@H]3CCCO3)c(F)ccc2c1Oc1ncccc1-c1ccnc(N[C@H]2CCCNC2)n1` (single isomer, unassigned) [Example 416, hydrochloride], for the setting “Table 2”, the IC50 was 105 nM. Still for that read-out and setting: the figure for `Cc1ccc2c(NS(=O)(=O)C=C3CCC3)c(F)ccc2c1Oc1ncccc1-c1ccnc(N[C@H]2CCCNC2)n1` [Example 413, 1-Cyclobutylidene-N-[2-fluoro-6-methyl-5-[[3-[2-[[(3S)-3-piperidyl]amino]pyrimidin-4-yl]-2-pyridyl]oxy]-1-naphthyl]methanesulfonamide hydrochloride] is 50 nM.

Values taken from patent US10968203B2, “Pyrimidinyl-pyridyloxy-naphthyl compounds and methods of treating IRE1-related diseases and disorders” (Genentech, Inc., priority 2017, dated 2021).
